Experimental data reported in patent US20110077231A1, “COMPOUNDS” (BOEHRINGER INGELHEIM INTERNATIONAL GMBH, priority 2007, published 2011).

Molecular target: T1, hBK1 receptor (Homo sapiens, UniProt P46663)
T1 construct: expressed in transfected cells; host or cells: CHO cells (membrane homogenate)
T1 sequence (P46663 1-353): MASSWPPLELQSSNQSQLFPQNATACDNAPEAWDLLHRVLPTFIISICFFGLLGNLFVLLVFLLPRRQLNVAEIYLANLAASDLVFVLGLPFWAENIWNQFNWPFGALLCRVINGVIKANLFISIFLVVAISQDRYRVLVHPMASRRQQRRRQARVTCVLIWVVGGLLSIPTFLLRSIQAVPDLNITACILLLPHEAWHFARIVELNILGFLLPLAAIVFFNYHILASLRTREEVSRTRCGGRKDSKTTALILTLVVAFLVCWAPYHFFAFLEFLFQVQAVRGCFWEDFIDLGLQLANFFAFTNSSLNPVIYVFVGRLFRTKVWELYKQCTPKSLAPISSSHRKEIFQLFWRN
Assay: hBK1 receptor binding (radioligand displacement on CHO cell membranes)
Conditions: membranes of CHO cells expressing the hBK1 receptor; 0.5 to 1.0 nM [3H]-kallidin (DesArg10, Leu9); 60 minutes at room temperature
Protocol: Description of the Method of hBK1 Receptor Binding
CHO cells expressing the hBK1 receptor are cultivated in Dulbecco's modified medium. The medium from confluent cultures is removed and the cells are washed with PBS buffer, scraped off and isolated by centrifugation. The cells are then homogenized in suspension and the homogenate is centrifuged and resuspended. The protein content is determined and the membrane preparation obtained in this manner is then frozen at −80° C. After thawing, 200 μl of the homogenate (50 to 100 μg of proteins/assay) are incubated at room temperature with 0.5 to 1.0 nM of kallidin (DesArg10, Leu9), [3,4-prolyl-3,43H(N)] and increasing concentrations of the test substance in a total volume of 250 μl for 60 minutes. The incubation is terminated by rapid filtration through GF/B glass fibre filters which had been pretreated with polyethyleneimine (0.3%). The protein-bound radioactivity is measured in a TopCount NXT. Non-specific binding is defined as radioactivity bound in the presence of 1.0 μM of […]. The concentration/binding curve is analysed using a computer-assisted nonlinear curve fitting. The Ki which corresponds to the test substance is determined using the data obtained in this manner. […]

Row | Ki | SMILES
1 | 53.6 nM | COc1cc(C)c(S(=O)(=O)N(C)CCOCC(=O)N(C)[C@H]2CC[C@H](OCCN(C)C)CC2)c(C)c1 [Example 1]
2 | 15 nM | COc1cc(C)c(S(=O)(=O)N(C)CCOCC(=O)N(C)[C@H]2CC[C@H](OCCN3CCCC3)CC2)c(C)c1 [Example 2]
